2 molecules from patent US20170248586A1, “Marker For Depression, Assay Method, Method For Determining Depression, Screening Method For Antidepressants, And Kit” (MEIJO UNIVERSITY, priority 2013, published 2017) can be followed below.

Assay [1] has as its system MAGE-D1 gene-deficient mice. Briefly: Forced swim test, evaluation of depression-like behavior in model mice. The following applies: for average value of immobility time: immobility measured for 10 minutes, 0 mg/kg group 425 seconds; for depression-like behavior in model mice: FIG. 1A desipramine, FIG. 1B atomoxetine; for increase in immobility time of model mice in the forced swim test (result in words): desipramine 10 mg/kg or atomoxetine 3 mg/kg i.p., FIGS. 1A and 1B. In kind it is in vivo, mouse. An excerpt: A targeting vector (Stratagene: pBlueScript) for homologous recombination between a MAGE-D1 gene (Gene bank: NM_019791.2) exon and a drug (G418)-resistant gene (GenBank: U00004.1) was electroporated into embryo stem (ES) cells derived from 129Svj mice (supplied from National Center for Geriatrics and Gerontology), and drug-resistant colonies were selected. A homologous recombinant was identified from the selected drug-resistant colonies by Southern blotting. The identified target homologous recombinant ES cell clone was injected into C57BL/6J mouse blastocyst-stage embryos to generate chimeric mice. The chimeric mice were mated with wild-type C57BL/6J mice to generate F1 heterozygous MAGE-D1 gene-deficient mice. The heterozygous MAGE-D1 gene-deficient mice were mated with wild-type C57BL/6J mice up to the F10 generation. The mice having a 99.9% C57BL/6J genetic background were used (When mating with a C57BL/6J mouse is performed once, about half of the genes of a newborn mouse are derived from the C57BL/6J mouse used for mating. That is, it is considered that when mating with a C57BL/6J mouse is performed n times, about [1−(½)^n+1]×100% of genes are derived from the C57BL/6J mouse.) The mice having such a genetic background were defined as MAGE-D1 gene-deficient mice (hereinafter, also referred to as model mice) and used in the following tests.
(§1) Experimental Equipment and Procedure: A water bath (diameter 15 cm×height 20 cm) filled with water (water temperature: about 22° C., depth: 13 cm) was used as experimental equipment. A wild-type C57BL/6J mouse as a control or a model mouse was placed in the water bath, and just after that, immobility time was measured by Scanet MV-10 AQ (Brain Science Idea, Osaka, Japan) every 1 minute for 10 minutes.
(§2) Thirty minutes before the test, 10 mg/kg of desipramine (Sigma, St. Louis, Mo.) or 3 mg/kg of atomoxetine (LKT Laboratories, Inc, MN) dissolved in normal saline was intraperitoneally administered. As a control, the solvent was intraperitoneally administered.
(§3) In Examples, MAGE-D1 gene-deficient mice were used as animal models. The forced swim test was used for evaluating depression-like behavior. In the forced swim test, a mouse is placed in a narrow cylinder filled with water so as to recognize the impossibility of escape therefrom, and the time that the mouse floats on water without moving is evaluated as decreased motivation. […] Each administration test was performed in triplicate, and therefore graphs in FIGS. 1A and 1B show average values.

A further assay concerns wild-type C57BL/6J mouse. The experiment in a line: Forced swim test in control mice. In kind it is in vivo. The following applies: immobility measured for 10 minutes, 0 mg/kg group 203 seconds. The protocol:
as §1, §2, §3

The mark [2] stands for this setting: 10 mg/kg intraperitoneally 30 min before test.
[3] abbreviates: 3 mg/kg intraperitoneally 30 min before test.

SMILES strings stand for the structures.

As for `CNCCCN1c2ccccc2CCc2ccccc21` [desipramine], the “average value of immobility time” value in assay [1] (setting [2]) was determined as 334 s. In addition, in assay [1], the “depression-like behavior in model mice” value is on record as “relieved” and the “increase in immobility time of model mice in the forced swim test (result in words)” value is given as “significantly reduced”. The “average value of immobility time” value with wild-type C57BL/6J mouse (setting [2]) stood at 215 s.
Take `CNCC[C@@H](Oc1ccccc1C)c1ccccc1` [atomoxetine]: the results for the “average value of immobility time” value (in assay [1] (setting [3]); in the assay with wild-type C57BL/6J mouse (setting [3])) were 283 s and 205 s, respectively. In addition, the “depression-like behavior in model mice” value in assay [1] is on record as “relieved”. The “increase in immobility time of model mice in the forced swim test (result in words)” value in assay [1] was “significantly reduced”.
